This note sets out measurements from patent US5807885A, “Amidine derivatives with nitric oxide synthetase activities” (priority 1996, dated 1998).

Assay [1] deals with T1, endothelial nitric oxide synthetase (Homo sapiens, UniProt P29474).
T1 construct: Enzyme may be isolated from human umbilical vein endothelial cells (HUVECs); host or cells: human umbilical vein endothelial cells (HUVECs)
The experiment in a line: Screen C: screen for endothelial nitric oxide synthetase inhibitory activity. It counts as biochemical.
Source text: (C) Screen for endothelial nitric oxide synthetase inhibitory activity
Enzyme may be isolated from human umbilical vein endothelial cells (HUVECs) by a procedure based on that of Pollock et al (1991) Proc. Nat. […] HUVECs were purchased from Clonetics Corp (San Diego, Calif., USA) and cultured to confluency. Cells can be maintained to passage 35-40 without significant loss of yield of nitric oxide synthetase. When cells reach confluency, they are resuspended in Dulbecco's phosphate buffered saline, centrifuged at 800 rpm for 10 mins, the cell pellet homogenised in ice-cold 50 mM Tris-HCl, 1 mM EDTA, 10% glycerol, 1 mM phenylmethylsulphonylfluoride, 2 μM leupeptin at pH 4.2. Following centrifugation at 34,000 rpm for 60 mins, the pellet is solubilised in the homogenisation buffer which also contains 20 mM CHAPS. After a 30 min incubation on ice, the suspension is centrifuged at 34,000 rpm for 30 mins. The resulting supernatant is stored at -80° C. until use. […]
Labelled L-citrulline is separated from labelled L-arginine by chromatography over a Dowex AG-50W-X8 200-400 mesh column. […] The L-citrulline is then quantified by scintillation counting. […]

Assay [2] has as its target T2, macrophage nitric oxide synthetase (Mus musculus, UniProt P29477).
T2 construct: Nitric oxide synthetase is produced by cells in response to interferon-γ (IFNγ) and lipopolysaccharide (LPS); endogenous in cells; host or cells: murine macrophage cell line J774A-1, induced with IFN-gamma and LPS (cell line from Imperial Cancer Research Fund)
The experiment in a line: Screen B: screen for macrophage nitric oxide synthetase activity. The format is biochemical, murine. The conditions noted are these: macrophage isoform (Screen B) versus neuronal isoform (Screen A). The source says: The enzyme nitric oxide synthetase has a number of isoforms and compounds of formula I, or pharmaceutically acceptable salts thereof, may be screened for nitric oxide synthetase inhibitory activity by procedures based on those of Bredt and Snyder in Proc. Natl. Acad. Sci (1990) 87, 682-685 and Forstermann et. al. (1992) Eur. J. Pharm. 225,161-165 as follows. Nitric axide synthetase converts ^3 H-L-arginine to ^3 H-L-citrulline which can be separated by cation exchange chromatography and quantified by liquid scintillation counting.
(B) Screen for macrophage nitric oxide synthetase activity
Enzyme is prepared; after induction, from the cultured murine macrophage cell line J774A-1 (obtained from laboratories of the Imperial Cancer Research Fund). J774A-1 cells are cultured in Dulbecco's Modified Eagles Medium (DMEM) supplemented with 10% foetal bovine serum, 4 mM L-glutamine and antibiotics (100 units/ml penicillin G, 100 μg/ml streptomycin & 0.25 μg/m amphotericin B). Cells are routinely grown in […] flasks containing 35 ml medium kept at 37° C. and in a humidified atmosphere containing 5% CO2.
Nitric oxide synthetase is produced by cells in response to interferon-γ (IFNγ) and lipopolysaccharide (LPS). […]
Labelled L-citrulline is separated from labelled L-arginine using Dowex AG-50W. […] After allowing the samples to dry the L-citrulline is quantified by scintillation counting. […]

In assay [3] the target is T3, neuronal nitric oxide synthetase (Rattus norvegicus, UniProt P29476).
T3 construct: Enzyme was isolated from rat hippocampus or cerebellum; from tissue; host or cells: cerebellum or hippocampus of male Sprague-Dawley rat, 20,000 g supernatant
T3 sequence (P29476 whole entry): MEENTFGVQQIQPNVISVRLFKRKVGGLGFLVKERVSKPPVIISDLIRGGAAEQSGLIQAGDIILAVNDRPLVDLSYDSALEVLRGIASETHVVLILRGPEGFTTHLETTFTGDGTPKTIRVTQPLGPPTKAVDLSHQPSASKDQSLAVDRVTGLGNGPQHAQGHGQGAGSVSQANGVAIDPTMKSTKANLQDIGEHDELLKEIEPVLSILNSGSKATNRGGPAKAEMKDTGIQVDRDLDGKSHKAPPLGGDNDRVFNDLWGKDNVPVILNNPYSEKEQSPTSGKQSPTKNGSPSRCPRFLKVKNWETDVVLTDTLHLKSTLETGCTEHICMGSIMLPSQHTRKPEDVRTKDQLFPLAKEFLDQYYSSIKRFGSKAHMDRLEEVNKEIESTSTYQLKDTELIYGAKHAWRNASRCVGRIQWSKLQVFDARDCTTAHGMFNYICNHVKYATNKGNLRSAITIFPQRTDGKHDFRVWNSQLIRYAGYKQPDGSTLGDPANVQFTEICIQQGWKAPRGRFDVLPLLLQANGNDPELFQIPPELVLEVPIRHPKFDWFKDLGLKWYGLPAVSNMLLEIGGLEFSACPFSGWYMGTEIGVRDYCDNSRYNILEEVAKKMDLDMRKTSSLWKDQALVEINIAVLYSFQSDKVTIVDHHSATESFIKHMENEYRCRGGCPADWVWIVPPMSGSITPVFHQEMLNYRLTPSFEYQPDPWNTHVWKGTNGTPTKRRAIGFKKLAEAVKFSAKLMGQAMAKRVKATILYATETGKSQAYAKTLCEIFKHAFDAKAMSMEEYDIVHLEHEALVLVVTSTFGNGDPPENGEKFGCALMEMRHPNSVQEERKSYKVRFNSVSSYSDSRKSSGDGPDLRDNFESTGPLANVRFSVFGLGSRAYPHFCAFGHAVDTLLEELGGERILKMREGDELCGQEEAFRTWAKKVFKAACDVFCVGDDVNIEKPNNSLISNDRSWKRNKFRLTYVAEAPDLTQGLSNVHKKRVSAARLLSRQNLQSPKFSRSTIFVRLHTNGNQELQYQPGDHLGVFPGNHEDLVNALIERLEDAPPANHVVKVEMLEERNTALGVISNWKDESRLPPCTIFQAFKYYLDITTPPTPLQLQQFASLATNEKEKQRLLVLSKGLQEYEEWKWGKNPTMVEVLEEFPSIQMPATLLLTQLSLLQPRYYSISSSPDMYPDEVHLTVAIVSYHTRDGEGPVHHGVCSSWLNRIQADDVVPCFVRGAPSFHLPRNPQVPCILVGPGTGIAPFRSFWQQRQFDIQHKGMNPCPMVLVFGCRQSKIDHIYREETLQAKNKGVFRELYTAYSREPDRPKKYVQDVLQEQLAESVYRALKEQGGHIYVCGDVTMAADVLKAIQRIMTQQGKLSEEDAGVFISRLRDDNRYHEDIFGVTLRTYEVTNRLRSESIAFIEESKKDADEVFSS
As to the kind of experiment: Screen A: screen for neuronal nitric oxide synthetase inhibitory activity. It counts as biochemical. To be noted: for IC50: neuronal isoform, rat hippocampus or cerebellum supernatant, read-out: IC50 (concentration of drug substance which gives 50% enzyme inhibition in the assay).
Procedure: (A) Screen for neuronal nitric oxide synthetase inhibitory activity
Enzyme was isolated from rat hippocampus or cerebellum. The cerebellumn or hippocampus of a male Sprague-Dawley rat (250-275 g) is removed following CO2 anaesthesia of the animal and decapitation. Cerebellar or hippocampal supernatant is prepared by homogenisation in 50 mM Tris-HCl with 1 mM EDTA buffer (pH 7.2 at 25° C.) and centifugation for 15 minutes at 20,000 g. Residual L-arginine is removed from the supernatant by chromatography through Dowex AG-50W-X8 sodium form and hydrogen form columns successively, and further centrifugation at 1000 g for 30 seconds.
For the assay, 25 μl of the final supernatant is added to each of 12 test tubes containing 25 μl L-arginine solution (of concentration 18 μM ^1 H-L-arginine, 96 nM ^3 H-L-arginine) and either 25 μl of an assay buffer (50 mM HEPES, 1 mM EDTA, 1.5 mM CaCl2, pH 7.4) or 25 μl of test compound in the buffer at 22° C. To each test tube was added 75 μl of complete assay buffer (50 mM HEPES, 1 mM EDTA, 1.5 mM CaCl2, 1 mM DTF, 100 μM NADPH, 10 μg/ml calmodulin, pH 7.4) to initiate the reaction and the reaction is stopped after 10 minutes by addition of 2 ml of a termination buffer (20 mM HEPES, 2 mM EDTA, pH 55).
Labelled L-citrulline is separated from labelled L-arginine by chromatography over a Dowex AG-50W-X8 200-400 mesh column. 1 ml of each terminated reaction is added to an individual 1 ml column and the eluant combined with that from two 1 ml distilled water washes and 16 ml of scintillation cocktal The L-citrulline is then quantified by scintillation counting.
IC50 values for test compounds were initially estimated from the inhibiting activity of 1, 10 and 100 μM solutions of the compounds. Compounds that inhibited the enzyme by at least 50% at 10 μM were retested using more appropriate concentrations so that an IC50 could be determined.

T1 sequence (P29474 2-1203): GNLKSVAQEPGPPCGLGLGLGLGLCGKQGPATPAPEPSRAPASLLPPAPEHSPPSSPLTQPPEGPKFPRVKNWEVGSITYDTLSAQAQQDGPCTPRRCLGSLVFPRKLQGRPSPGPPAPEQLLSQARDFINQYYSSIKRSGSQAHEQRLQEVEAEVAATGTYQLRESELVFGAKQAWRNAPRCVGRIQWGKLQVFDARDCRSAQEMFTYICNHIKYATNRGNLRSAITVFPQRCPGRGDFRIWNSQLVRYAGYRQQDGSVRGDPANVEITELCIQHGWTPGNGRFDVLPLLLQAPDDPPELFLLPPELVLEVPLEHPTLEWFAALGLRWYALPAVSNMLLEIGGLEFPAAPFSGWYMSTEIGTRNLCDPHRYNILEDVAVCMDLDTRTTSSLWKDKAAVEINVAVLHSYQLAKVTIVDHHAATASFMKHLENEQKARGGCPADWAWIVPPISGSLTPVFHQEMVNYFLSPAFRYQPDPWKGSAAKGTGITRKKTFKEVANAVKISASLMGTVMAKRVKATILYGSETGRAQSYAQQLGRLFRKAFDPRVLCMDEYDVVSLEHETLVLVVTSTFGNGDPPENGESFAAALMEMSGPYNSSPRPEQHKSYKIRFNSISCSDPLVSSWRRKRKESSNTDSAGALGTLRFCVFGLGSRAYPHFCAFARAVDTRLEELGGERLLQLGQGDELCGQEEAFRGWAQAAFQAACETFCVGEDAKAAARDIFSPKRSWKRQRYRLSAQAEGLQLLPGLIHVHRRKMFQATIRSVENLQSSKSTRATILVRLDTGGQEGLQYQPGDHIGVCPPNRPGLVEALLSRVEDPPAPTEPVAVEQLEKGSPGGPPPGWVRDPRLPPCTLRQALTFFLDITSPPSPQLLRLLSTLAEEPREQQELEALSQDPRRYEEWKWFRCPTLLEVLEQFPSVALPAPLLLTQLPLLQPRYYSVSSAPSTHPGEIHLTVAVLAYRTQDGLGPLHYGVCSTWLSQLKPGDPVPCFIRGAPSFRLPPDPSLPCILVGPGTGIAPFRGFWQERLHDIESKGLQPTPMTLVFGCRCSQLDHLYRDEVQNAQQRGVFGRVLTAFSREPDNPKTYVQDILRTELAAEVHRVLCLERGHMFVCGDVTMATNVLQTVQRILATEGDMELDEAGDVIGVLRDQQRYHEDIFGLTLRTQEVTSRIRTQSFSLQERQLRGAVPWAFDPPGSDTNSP

For `NC(=N[N+](=O)[O-])NCCC[C@H](N)C(=O)O` [N-nitro-L-arginine, reference compound], the inhibition at 1 µM in assay [1] (Screen C, at a concentration of 1 μM, HUVEC enzyme, read-out: inhibition of nitric oxide synthetase (reference standard)) is 70 to 90%.

In the case of `NC(=Nc1ccc(CCNCc2ccccc2)cc1)c1cccs1` [Example 1, N-(4-(2-((phenylmethyl)amino)ethyl)phenyl)-2-thiophenecarboximidamide], the “IC50 in Screen B relative to IC50 in Screen A” value in assay [2] is listed as “more than 10 times”. Further, the “IC50 in Screen C relative to IC50 in Screen A” value in assay [1] (endothelial isoform (Screen C) versus neuronal isoform (Screen A)) is “more than 10 times”. Moreover, in assay [3], the IC50 is less than 10 µM.

In assay [3] (at 10 μM), `CN(CCc1ccc(NC(=N)C(F)(F)F)cc1)Cc1ccccc1` [Example 72, N-(4-(2-((phenylmethyl)(methyl)amino)ethyl)phenyl)trifluoroacetimidamide] yielded an inhibition at 10 µM of 17%.

As for `N=C(Nc1ccc(C(=O)Nc2ccccc2)cc1)c1cccs1` [Example 27(b), N-(4-((phenylamino)carbonyl)phenyl)-2-thiophenecarboximidamide], the IC50 in assay [3] is less than 10 µM.

Consider `NC(=Nc1ccc(NC(=O)N(c2ccccc2)c2ccccc2)cc1)c1cccs1` [Example 48, N-[4-(((Diphenylamino)carbonyl)amino)phenyl]-2-thiophenecarboxamidine], for which the IC50 in assay [3] was less than 100 µM.

`N=C(Nc1ccc(CCCC(=O)N2CCOCC2)cc1)c1cccs1` [27(a), N-(4-(3-((4-morpholinyl)carbonyl)propyl)phenyl)-2-thiophenecarboximidamide]: the IC50 in assay [3] was less than 10 µM.
